In patent publication US11738008B2, “N-methyl-D-aspartic acid receptor modulators” (Emory University, priority 2018, dated 2023):
Read-outs that look alike come from different tables or passages of the source.

Legend:
[1] = In vivo pharmacokinetics, plasma and brain, IP 10 mg/kg; design: species or system C57BL/6 mice; settings: mouse
Procedure: In vivo analysis of 1180-420 and 1180-447 for pharmacokinetic properties: In vivo analysis of 1180-420 and 1180-447 for pharmacokinetic properties was performed by Pharmaron (Irvine, Calif.). […] The mouse is placed head down at a 45-degree angle to facilitate blood removal. After perfusion, the brain ventricle is opened, and the brain is removed. […] The mixtures were then vortexed for 30 seconds and subsequently centrifuged (˜4000 rpm) for 15 minutes.

β3 = β3 (Homo sapiens, UniProt P13945); experiment: NIMH PDSP radioligand binding, β3; settings: read-out: Radioligand binding in 10 μM compound (% control)
Sequence of β3 (P13945 whole entry): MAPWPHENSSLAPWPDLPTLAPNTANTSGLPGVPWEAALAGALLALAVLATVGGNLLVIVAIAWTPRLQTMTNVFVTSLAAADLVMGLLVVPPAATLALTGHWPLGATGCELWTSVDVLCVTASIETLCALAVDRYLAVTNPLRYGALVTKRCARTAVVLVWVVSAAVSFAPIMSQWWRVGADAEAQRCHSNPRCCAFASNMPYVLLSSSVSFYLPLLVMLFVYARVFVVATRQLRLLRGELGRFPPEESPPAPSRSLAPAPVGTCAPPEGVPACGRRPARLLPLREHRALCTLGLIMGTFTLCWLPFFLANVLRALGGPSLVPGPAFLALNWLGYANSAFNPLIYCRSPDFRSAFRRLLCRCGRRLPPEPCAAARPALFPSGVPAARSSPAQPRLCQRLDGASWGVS
Procedure: (§1) The NIMH PDSP is Directed by Bryan L. Roth at the University of North Carolina at Chapel Hill and Project Officer Jamie Driscoll at NIMH, Bethesda Md., USA. Radioligand binding was measured in the presence of 10 μM 1180-420 and 1180-447. […] For experimental details please refer to the PDSP web site https://pdsp.unc.edu/ims/investigator/web/. Both 1180-420 and 1180-447 were also tested at AMPA, nicotinic acetylcholine, serotonin, GABA, and glycine ion channels using a two-electrode voltage clamp assay.
(§2) Receptor binding profiles of compound 1180-447 were generously provided by the National Institute of Mental Health's Psychoactive Drug Screening Program, Contract # HHSN-271-2013-00017-C(NIMH PDSP). The NIMH PDSP is directed by Bryan L. Roth at the University of North Carolina at Chapel Hill and Project Officer Jamie Driscoll at NIMH, Bethesda Md., USA. Radioligand binding was measured in the presence of 10 μM 1180-447. […] For experimental details please refer to the PDSP web site https://pdsp.unc.edu/ims/investigator/web/.
(§3) The NIMH PDSP is Directed by Bryan L. Roth at the University of North Carolina at Chapel Hill and Project Officer Jamie Driscoll at NIMH, Bethesda Md., USA. Radioligand binding was measured in the presence of 10 μM 1180-420. […] For experimental details please refer to the PDSP web site https://pdsp.unc.edu/ims/investigator/web/.

σ1 = σ1 (Homo sapiens, UniProt Q99720); experiment: NIMH PDSP radioligand binding, σ1; settings: read-out: Radioligand binding in 10 μM compound (% control)
Procedure: as §1, §2, §3

[2] = target: norepinephrine transporter (Homo sapiens, UniProt P23975); experiment: NIMH PDSP radioligand binding, norepinephrine transporter; settings: read-out: Radioligand binding in 10 μM compound (% control)
Sequence of norepinephrine transporter (P23975 whole entry, species assumed): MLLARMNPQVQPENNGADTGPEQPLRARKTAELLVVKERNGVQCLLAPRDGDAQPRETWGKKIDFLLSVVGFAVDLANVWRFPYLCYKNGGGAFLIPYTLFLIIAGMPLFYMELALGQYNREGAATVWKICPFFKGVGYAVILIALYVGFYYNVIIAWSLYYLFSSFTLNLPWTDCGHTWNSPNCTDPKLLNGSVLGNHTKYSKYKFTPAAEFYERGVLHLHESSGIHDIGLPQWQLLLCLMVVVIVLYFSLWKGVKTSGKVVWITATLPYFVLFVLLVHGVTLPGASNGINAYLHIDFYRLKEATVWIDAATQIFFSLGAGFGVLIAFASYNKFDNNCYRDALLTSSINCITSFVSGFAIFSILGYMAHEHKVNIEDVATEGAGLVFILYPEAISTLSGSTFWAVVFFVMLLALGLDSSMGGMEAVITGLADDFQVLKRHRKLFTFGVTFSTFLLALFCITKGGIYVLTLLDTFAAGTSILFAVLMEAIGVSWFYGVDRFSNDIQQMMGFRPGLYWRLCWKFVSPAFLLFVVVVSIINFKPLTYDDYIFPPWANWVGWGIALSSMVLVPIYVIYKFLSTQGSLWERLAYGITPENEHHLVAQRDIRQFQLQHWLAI
Procedure: as §1, §2, §3

5-HT7 = target: T1, 5-HT7 (Homo sapiens, UniProt P34969); experiment: NIMH PDSP radioligand binding, 5-HT7; settings: read-out: Radioligand binding in 10 μM compound (% control)
T1 construct: NIMH PDSP (assay provider)
Procedure: as §1, §2, §3

GluA1 = target: T2, GluA1 (Homo sapiens, UniProt P42261); experiment: Off-target two-electrode voltage clamp assay, GluA1; format: cell-based; settings: 10 μM, mean ± SEM
T2 construct: expressed in transfected cells
Procedure: as §1

α1A = α1A (Homo sapiens, UniProt P35348); experiment: NIMH PDSP radioligand binding, α1A; settings: read-out: Radioligand binding in 10 μM compound (% control)
Sequence of α1A (P35348 whole entry): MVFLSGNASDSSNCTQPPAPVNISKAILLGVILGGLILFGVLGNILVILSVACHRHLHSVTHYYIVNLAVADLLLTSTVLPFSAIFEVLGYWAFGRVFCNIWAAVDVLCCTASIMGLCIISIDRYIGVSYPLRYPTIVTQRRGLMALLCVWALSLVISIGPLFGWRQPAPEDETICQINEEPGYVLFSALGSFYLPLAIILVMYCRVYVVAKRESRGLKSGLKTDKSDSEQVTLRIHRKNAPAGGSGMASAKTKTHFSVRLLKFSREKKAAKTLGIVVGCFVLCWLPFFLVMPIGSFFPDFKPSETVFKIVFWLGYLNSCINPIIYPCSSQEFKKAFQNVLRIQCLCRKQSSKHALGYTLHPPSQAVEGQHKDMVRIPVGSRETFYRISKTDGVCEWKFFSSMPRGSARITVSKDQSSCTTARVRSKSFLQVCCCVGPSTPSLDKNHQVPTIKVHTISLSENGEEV
Procedure: as §1, §2, §3

5-HT3 = target: T3, 5-HT3 (Homo sapiens, UniProt P46098); experiment: NIMH PDSP radioligand binding, 5-HT3; settings: read-out: Radioligand binding in 10 μM compound (% control)
T3 construct: NIMH PDSP (assay provider)
Procedure: as §1, §2, §3

H2 = H2 (Homo sapiens, UniProt P25021); experiment: NIMH PDSP radioligand binding, H2; settings: read-out: Radioligand binding in 10 μM compound (% control)
Sequence of H2 (P25021 whole entry): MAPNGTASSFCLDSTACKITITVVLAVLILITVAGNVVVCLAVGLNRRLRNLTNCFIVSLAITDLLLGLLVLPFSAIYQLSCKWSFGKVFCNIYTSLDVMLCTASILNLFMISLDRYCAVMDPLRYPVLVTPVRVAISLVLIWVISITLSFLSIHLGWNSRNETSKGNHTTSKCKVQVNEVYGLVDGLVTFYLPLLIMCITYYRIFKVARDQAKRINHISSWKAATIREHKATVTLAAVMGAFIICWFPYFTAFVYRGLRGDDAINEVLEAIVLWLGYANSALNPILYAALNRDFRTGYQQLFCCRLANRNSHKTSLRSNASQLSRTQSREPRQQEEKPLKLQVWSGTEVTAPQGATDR
Procedure: as §1, §2, §3

5-HT1D = target: T4, 5-HT1D (Homo sapiens, UniProt P28221); experiment: NIMH PDSP radioligand binding, 5-HT1D; settings: read-out: Radioligand binding in 10 μM compound (% control)
T4 construct: NIMH PDSP (assay provider)
Procedure: as §1, §2, §3

5-HT2A = target: T5, 5-HT2A (Homo sapiens, UniProt P28223); experiment: NIMH PDSP radioligand binding, 5-HT2A
T5 construct: NIMH PDSP (assay provider)
T5 sequence (P28223 whole entry, species assumed): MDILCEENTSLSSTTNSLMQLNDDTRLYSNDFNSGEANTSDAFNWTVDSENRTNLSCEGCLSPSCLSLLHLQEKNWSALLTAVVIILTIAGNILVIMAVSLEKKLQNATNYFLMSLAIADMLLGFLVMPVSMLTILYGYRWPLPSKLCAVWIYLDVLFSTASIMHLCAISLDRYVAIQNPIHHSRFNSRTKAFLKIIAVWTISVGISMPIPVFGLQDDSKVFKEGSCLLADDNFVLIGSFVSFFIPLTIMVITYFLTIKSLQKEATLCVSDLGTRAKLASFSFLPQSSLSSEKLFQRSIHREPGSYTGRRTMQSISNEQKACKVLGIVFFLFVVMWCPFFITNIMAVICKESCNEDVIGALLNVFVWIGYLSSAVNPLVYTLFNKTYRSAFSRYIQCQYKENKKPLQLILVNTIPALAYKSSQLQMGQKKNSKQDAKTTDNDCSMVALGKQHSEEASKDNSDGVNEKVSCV
Procedure: as §1, §2, §3

M1 = M1 (Homo sapiens, UniProt P11229); experiment: NIMH PDSP radioligand binding, M1; settings: read-out: Radioligand binding in 10 μM compound (% control)
Procedure: as §1, §2, §3

D2 = target: T6, D2 (Homo sapiens, UniProt P14416); experiment: NIMH PDSP radioligand binding, D2; settings: read-out: Radioligand binding in 10 μM compound (% control)
T6 construct: NIMH PDSP (assay provider)
Procedure: as §1, §2, §3

α1B = α1B (Homo sapiens, UniProt P35368); experiment: NIMH PDSP radioligand binding, α1B; settings: read-out: Radioligand binding in 10 μM compound (% control)
Procedure: as §1, §2, §3

5-HT1E = target: T7, 5-HT1E (Homo sapiens, UniProt P28566); experiment: NIMH PDSP radioligand binding, 5-HT1E; settings: read-out: Radioligand binding in 10 μM compound (% control)
T7 construct: NIMH PDSP (assay provider)
T7 sequence (P28566 whole entry, species assumed): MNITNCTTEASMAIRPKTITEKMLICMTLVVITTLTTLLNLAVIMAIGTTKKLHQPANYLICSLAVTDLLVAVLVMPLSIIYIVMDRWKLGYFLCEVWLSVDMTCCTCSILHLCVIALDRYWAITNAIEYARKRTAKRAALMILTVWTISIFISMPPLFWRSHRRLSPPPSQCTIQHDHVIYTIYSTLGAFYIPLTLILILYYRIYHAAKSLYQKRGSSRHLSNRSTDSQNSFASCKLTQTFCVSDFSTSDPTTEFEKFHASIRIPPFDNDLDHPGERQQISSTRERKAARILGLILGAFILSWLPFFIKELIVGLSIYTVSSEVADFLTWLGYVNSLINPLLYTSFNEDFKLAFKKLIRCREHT
Procedure: as §1, §2, §3

D5 = target: T8, D5 (Homo sapiens, UniProt P21918); experiment: NIMH PDSP radioligand binding, D5; settings: 10 μM, read-out: Radioligand binding in 10 μM compound (% control)
T8 construct: NIMH PDSP (assay provider)
Procedure: as §1, §2, §3

H1 = H1 (Homo sapiens, UniProt P35367); experiment: NIMH PDSP radioligand binding, H1; settings: read-out: Radioligand binding in 10 μM compound (% control)
Procedure: as §1, §2, §3

CNS receptors = experiment: Off-target profile, NIMH PDSP CNS receptors (panel summary); format: binding; settings: 10 μM
Procedure: as §1, §2, §3

hERG = hERG (Homo sapiens, UniProt Q12809); experiment: NIMH PDSP hERG binding
Procedure: as §1, §2, §3

α1D = α1D (Homo sapiens, UniProt P25100); experiment: NIMH PDSP radioligand binding, α1D; settings: read-out: Radioligand binding in 10 μM compound (% control)
Procedure: as §1, §2, §3

β1 = β1 (Homo sapiens, UniProt P08588); experiment: NIMH PDSP radioligand binding, β1; settings: read-out: Radioligand binding in 10 μM compound (% control)
Procedure: as §1, §2, §3

M5 = M5 (Homo sapiens, UniProt P08912); experiment: NIMH PDSP radioligand binding, M5; settings: read-out: Radioligand binding in 10 μM compound (% control)
Sequence of M5 (P08912 whole entry): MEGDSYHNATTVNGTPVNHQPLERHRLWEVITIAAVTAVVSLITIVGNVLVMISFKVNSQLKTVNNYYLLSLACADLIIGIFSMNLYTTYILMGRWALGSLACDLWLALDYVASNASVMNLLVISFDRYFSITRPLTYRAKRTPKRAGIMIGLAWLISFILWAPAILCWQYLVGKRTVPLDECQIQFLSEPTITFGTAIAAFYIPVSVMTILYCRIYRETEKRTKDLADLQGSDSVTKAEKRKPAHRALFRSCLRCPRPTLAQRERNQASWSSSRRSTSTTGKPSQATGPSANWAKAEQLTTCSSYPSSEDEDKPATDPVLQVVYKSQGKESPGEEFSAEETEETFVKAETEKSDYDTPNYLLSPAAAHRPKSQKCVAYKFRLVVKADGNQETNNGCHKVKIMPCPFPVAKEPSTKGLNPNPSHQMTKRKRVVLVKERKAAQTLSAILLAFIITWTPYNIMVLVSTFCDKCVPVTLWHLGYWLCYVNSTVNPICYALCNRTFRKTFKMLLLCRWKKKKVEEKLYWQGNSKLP
Procedure: as §1, §2, §3

μ-opioid receptor = μ-opioid receptor (Homo sapiens, UniProt P35372); experiment: NIMH PDSP radioligand binding, μ-opioid receptor; settings: read-out: Radioligand binding in 10 μM compound (% control)
Procedure: as §1, §2, §3

M2 = M2 (Homo sapiens, UniProt P08172); experiment: NIMH PDSP radioligand binding, M2; settings: read-out: Radioligand binding in 10 μM compound (% control)
Procedure: as §1, §2, §3

α4β2-nACh = target: T9, α4β2-nACh (Homo sapiens, UniProt P17787+P43681); experiment: Off-target two-electrode voltage clamp assay, α4β2-nACh; format: cell-based; settings: 10 μM, mean ± SEM
T9 construct: expressed in transfected cells
T9 sequence (P43681 29-627 limits assumed): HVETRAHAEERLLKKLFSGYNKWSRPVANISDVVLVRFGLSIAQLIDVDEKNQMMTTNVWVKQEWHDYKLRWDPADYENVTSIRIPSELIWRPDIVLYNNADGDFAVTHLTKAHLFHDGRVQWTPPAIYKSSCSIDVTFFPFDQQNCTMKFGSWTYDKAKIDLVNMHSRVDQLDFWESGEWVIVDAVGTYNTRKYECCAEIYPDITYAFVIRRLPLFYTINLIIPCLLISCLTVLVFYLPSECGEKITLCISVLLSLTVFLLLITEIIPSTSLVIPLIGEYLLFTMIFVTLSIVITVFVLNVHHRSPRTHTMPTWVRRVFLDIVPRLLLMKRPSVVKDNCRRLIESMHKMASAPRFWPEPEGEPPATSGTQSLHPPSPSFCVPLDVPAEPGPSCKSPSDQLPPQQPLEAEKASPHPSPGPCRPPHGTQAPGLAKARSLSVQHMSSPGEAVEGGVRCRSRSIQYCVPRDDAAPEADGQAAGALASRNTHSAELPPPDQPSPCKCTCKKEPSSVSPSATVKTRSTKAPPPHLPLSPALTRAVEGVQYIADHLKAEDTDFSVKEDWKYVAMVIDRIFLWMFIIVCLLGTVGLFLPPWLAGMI
T9 sequence (P17787 26-502): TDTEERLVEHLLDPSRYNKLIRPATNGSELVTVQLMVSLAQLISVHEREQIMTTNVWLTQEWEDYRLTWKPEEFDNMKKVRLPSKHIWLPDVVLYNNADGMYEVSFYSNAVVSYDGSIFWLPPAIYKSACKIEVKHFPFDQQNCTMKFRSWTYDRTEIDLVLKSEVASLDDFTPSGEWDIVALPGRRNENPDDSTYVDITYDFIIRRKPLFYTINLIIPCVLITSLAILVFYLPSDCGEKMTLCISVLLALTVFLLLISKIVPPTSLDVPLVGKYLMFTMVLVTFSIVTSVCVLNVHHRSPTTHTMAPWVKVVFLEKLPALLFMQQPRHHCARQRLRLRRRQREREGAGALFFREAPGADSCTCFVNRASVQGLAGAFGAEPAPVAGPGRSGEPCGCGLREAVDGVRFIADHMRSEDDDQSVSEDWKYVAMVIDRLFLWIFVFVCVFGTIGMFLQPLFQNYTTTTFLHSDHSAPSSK
Procedure: as §1

α2A = α2A (Homo sapiens, UniProt P08913); experiment: NIMH PDSP radioligand binding, α2A; settings: read-out: Radioligand binding in 10 μM compound (% control)
Sequence of α2A (P08913 whole entry): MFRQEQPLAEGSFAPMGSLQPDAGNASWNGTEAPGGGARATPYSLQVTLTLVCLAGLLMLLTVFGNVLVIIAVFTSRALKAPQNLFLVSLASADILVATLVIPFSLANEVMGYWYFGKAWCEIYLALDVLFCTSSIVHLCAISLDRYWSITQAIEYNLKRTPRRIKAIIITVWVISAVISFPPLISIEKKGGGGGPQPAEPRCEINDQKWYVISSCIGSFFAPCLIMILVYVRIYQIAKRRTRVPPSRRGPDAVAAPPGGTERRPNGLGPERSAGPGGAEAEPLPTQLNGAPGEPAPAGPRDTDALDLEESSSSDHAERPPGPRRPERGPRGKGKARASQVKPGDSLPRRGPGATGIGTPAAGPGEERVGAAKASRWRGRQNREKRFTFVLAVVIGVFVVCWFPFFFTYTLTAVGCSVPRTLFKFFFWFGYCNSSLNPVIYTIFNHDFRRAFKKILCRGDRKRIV
Procedure: as §1, §2, §3

α2B = α2B (Homo sapiens, UniProt P18089); experiment: NIMH PDSP radioligand binding, α2B; settings: read-out: Radioligand binding in 10 μM compound (% control)
Procedure: as §1, §2, §3

D4 = target: T10, D4 (Homo sapiens, UniProt P21917); experiment: NIMH PDSP radioligand binding, D4; settings: read-out: Radioligand binding in 10 μM compound (% control)
T10 construct: NIMH PDSP (assay provider)
Procedure: as §1, §2, §3

[3] = male, C57BL/6, Plasma IP 10 mg/kg fed, mean

SMILES: COc1ccc(OCC2c3cccn3CC(=O)N2Cc2cccc(C(F)(F)F)c2)cc1 (racemic) [1180-447, 1-((4-Methoxyphenoxy)methyl)-2-(3-(trifluoromethyl)benzyl)-1,2-dihydropyrrolo[1,2-a]pyrazin-3(4H)-one]
- AUC % Extrapolation ([1]; Brain IP 10 mg/kg fed, mean): 9%
- AUCINF ([1]; Brain IP 10 mg/kg fed, mean): 1836 ng·h/g
- AUCLAST ([1]; Brain IP 10 mg/kg fed, mean): 1670 ng·h/g
- t½terminal ([1]; Brain IP 10 mg/kg fed, mean): 72 min
- max brain concentration ([1]; IP 10 mg/kg): 4 µM
- AUC % Extrapolation ([1]; Plasma IP 10 mg/kg fed, mean): 6%
- t½terminal ([1]; Plasma IP 10 mg/kg fed, mean): 60 min
- Kp ([1]; male, C57BL/6, brain and plasma, IP 10 mg/kg fed, read-out: Ratio_AUCLAST (Brain/plasma)): 2
- half-life ([1]; male, C57BL/6, plasma, IP 10 mg/kg, read-out: half-lives in plasma): > 60 min
- Tmax ([1]; male, C57BL/6, Brain IP 10 mg/kg fed, mean): 30 min
- Cmax ([1]; male, C57BL/6, Brain IP 10 mg/kg fed, mean, read-out: Cmax): 3900 nM
- Cmax ([1]; male, C57BL/6, Brain IP 10 mg/kg fed, mean, read-out: Cmax (ng/g)): 1670 ng/g
- AUC(0-inf) [1, 3]: 760 ng·h/mL
- AUC(0-t) [1, 3]: 715 ng·h/mL
- Tmax [1, 3]: 18 min
- Cmax ([1]; male, C57BL/6, Plasma IP 10 mg/kg fed, mean, read-out: Cmax): 1500 nM
- Cmax ([1]; male, C57BL/6, Plasma IP 10 mg/kg fed, mean, read-out: Cmax (ng/mL)): 635 ng/mL
- remaining activity at 10 µM (β3): 73%
- remaining activity at 10 µM (σ1): 76%
- remaining activity at 10 µM [2]: 70%
- remaining activity at 10 µM (5-HT7): 83%
- % control response (GluA1): 96.8 ± 13.3 % control response
- remaining activity at 10 µM (α1A): 97%
- remaining activity at 10 µM (5-HT3): 68%
- remaining activity at 10 µM (H2): 103%
- remaining activity at 10 µM (5-HT1D): 115%
- remaining activity at 10 µM (5-HT2A; 10 μM, read-out: Radioligand binding in 10 μM compound (% control)): 49%
- Ki (5-HT2A; read-out: pKi values from non-linear regression of radioligand competition binding isotherms (converted)): 2000 nM
- remaining activity at 10 µM (M1): 88%
- remaining activity at 10 µM (D2): 101%
- remaining activity at 10 µM (α1B): 102%
- remaining activity at 10 µM (5-HT1E): 80%
- remaining activity at 10 µM (D5): 67%
- remaining activity at 10 µM (H1): 86%
- receptors with >50% inhibition / receptors tested (CNS receptors): 4/44
- Radioligand binding in 10 μM compound (% control) (hERG): 70 % control
- remaining activity at 10 µM (α1D): 79%
- remaining activity at 10 µM (β1): 80%
- remaining activity at 10 µM (M5): 108%
- remaining activity at 10 µM (μ-opioid receptor): 99%
- remaining activity at 10 µM (M2): 90%
- % control response (α4β2-nACh): 52.7 ± 6.3 % control response
- remaining activity at 10 µM (α2A): 98%
- remaining activity at 10 µM (α2B): 94%
- remaining activity at 10 µM (D4): 101%
